Series [1] deals with T1, Leukotriene A-4 hydrolase (Homo sapiens, UniProt P09960).
T1 sequence (P09960 whole entry): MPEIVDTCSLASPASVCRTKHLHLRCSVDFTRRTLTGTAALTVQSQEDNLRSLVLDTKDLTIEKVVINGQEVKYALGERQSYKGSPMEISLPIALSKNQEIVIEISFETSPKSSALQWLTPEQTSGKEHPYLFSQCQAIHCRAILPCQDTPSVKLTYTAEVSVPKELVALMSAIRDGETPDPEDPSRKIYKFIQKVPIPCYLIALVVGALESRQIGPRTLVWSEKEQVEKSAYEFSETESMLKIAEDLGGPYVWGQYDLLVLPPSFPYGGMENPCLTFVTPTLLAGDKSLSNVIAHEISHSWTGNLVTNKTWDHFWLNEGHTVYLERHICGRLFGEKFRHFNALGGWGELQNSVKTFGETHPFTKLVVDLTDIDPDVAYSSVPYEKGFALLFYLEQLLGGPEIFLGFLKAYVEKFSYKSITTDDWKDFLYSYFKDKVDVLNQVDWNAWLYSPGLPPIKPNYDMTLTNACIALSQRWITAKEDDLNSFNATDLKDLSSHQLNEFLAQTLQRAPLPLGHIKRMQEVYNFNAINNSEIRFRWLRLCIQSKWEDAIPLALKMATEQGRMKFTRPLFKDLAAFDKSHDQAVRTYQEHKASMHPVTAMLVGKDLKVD
Nature of the series: Inhibition of recombinant human LTA4H Epoxide Hydrolase expressed in Escherichia coli BL21 (DE3) pLysS preincubated for 10 mins followed by addition of LTA4 as substrate measured after 15 mins by reverse-phase HPLC analysis.

The target in series [2] is T1, Leukotriene A-4 hydrolase. Nature of the series: Inhibition of recombinant human LTA4H aminopeptidase activity expressed in Escherichia coli BL21 (DE3) pLysS assessed as formation of p-NA from Ala-p-NA preincubated for 10 mins followed by substrate addition measured after 10 mins. It is filed as ADME.
Series [3] has as its target T2, Polyunsaturated fatty acid lipoxygenase ALOX15 (Homo sapiens) (UniProt P16050).
T2 sequence (whole entry): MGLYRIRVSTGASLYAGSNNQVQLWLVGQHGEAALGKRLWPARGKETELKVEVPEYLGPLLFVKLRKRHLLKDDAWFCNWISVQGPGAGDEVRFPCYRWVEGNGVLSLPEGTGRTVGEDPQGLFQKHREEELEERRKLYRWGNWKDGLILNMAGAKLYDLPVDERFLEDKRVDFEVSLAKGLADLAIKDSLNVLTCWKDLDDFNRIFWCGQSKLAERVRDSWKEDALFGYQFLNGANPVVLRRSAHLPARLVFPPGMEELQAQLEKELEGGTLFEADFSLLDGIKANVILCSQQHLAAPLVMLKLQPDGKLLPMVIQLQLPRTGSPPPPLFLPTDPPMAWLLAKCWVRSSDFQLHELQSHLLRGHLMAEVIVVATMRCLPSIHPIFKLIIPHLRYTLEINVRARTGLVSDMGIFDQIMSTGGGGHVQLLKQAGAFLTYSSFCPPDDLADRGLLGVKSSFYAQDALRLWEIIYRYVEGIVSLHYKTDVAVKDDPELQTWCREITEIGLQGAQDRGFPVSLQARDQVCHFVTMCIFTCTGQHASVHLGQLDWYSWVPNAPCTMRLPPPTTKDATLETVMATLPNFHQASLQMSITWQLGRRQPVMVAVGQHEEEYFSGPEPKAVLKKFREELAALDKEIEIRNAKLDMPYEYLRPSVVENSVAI
Nature of the series: Inhibition of recombinant human N-terminal His-tagged 15-LOX-1 expressed in Escherichia coli using arachidonic acid as substrate measured every 2 min intervals for 20 mins by fluorescence analysis.

Series [4] has as its target T3, Polyunsaturated fatty acid lipoxygenase ALOX12 (Homo sapiens) (UniProt P18054).
T3 sequence (whole entry): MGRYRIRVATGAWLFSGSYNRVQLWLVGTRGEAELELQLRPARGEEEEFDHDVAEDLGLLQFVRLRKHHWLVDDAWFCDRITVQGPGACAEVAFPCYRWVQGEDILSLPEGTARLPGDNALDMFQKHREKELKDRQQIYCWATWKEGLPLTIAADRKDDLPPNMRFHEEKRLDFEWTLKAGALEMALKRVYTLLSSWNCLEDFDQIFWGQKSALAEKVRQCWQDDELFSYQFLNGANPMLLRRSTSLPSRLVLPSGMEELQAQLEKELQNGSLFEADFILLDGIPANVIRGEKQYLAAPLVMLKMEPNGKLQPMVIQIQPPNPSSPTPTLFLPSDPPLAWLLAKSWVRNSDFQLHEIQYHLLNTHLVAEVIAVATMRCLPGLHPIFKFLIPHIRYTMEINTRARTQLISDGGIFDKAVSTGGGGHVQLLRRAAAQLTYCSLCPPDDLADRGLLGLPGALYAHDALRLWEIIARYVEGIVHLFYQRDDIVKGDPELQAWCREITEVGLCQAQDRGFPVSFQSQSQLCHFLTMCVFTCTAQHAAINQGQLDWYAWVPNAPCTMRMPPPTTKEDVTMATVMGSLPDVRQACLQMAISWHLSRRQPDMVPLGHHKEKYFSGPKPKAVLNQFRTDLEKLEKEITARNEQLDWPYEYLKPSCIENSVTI
Put plainly: Inhibition of recombinant human N-terminal His-tagged 12-LOX expressed in Escherichia coli assessed as conversion of arachidonic acid to HETEs measured for 300 secs by UV-visible spectrophotometric analysis.

Series [5] deals with T4, Leukotriene A-4 hydrolase (LTA4H) aminopeptidase activity (Homo sapiens, UniProt P09960).
T4 sequence (P09960 whole entry): T1 sequence (P09960 whole entry)
Nature of the series: Inhibition of recombinant human LTA4H aminopeptidase activity expressed in Escherichia coli BL21 (DE3) pLysS assessed as formation of p-NA from Ala-p-NA at 10 uM preincubated for 10 mins followed by substrate addition measured after 10 mins.

Series [6] deals with Mus musculus. Put plainly: Anti-inflammatory activity in BLM-induced C57BL/6 mouse model of acute lung neutrophilic inflammation assessed as reduction in number of lymphocytes in BALF at 10 and 25 mg/kg, ip qd for 7 days post BLM challenge measured on day 7. Type of series: functional, organism-based.
Series [7] concerns Mus musculus. Nature of the series: Anti-inflammatory activity in LPS-induced C57BL/6 mouse model of acute lung injury assessed as reduction in total number of leucocytes in BALF at 25 mg/kg, ip pretreated for 1 hr followed LPS challenge measured after 24 hrs. It is filed as functional, organism-based.
Series [8] has as its system Mus musculus. Nature of the series: Anti-inflammatory activity in BLM-induced C57BL/6 mouse model of acute lung injury assessed as reduction in IL-1beta mRNA level in BALF compound administered intraperitoneally once daily for 7 days post BLM challenge measured on day 7 by qRT-PCR method. Type of series: functional. A general note: Real-time PCR tracks product formation cycle by cycle.

Active and inactive are the calls of the source. The rule behind the calls is not given here. Some results are limits rather than exact numbers.

What is called IC50 is the concentration at which inhibition is half-maximal. Broadly, the inhibition is the share of the control response that was lost under treatment. Consider `CN(C)c1ccc(C(=O)NCCCCCCC(=O)NO)cc1`, for which the IC50 in series [1] stood at 0.68 µM; in series [2], 0.3 µM. Besides, the INH in series [3] and in series [4] was more than 50 µM throughout. The inhibition at 10 min, 10 µM in series [5] (probe Ala-p-NA) was more than 50%. For the same compound, the result in series [6] and in series [7] was Active. Also, the Activity result in series [8] is “Dose-dependent effect”.
As for `O=C(CCCCCCC(=O)Nc1ccccc1)NO` [VORINOSTAT], the values for the IC50 in series [1] and in series [2] were 7.65 µM and 1.67 µM, respectively. Further, the INH in series [3] and in series [4] was more than 50 µM each time. Also, the inhibition at 10 min, 10 µM in series [5] is more than 50%. Besides, the outcome in series [6] and in series [7] was Active. In series [8], the Activity entry was “Dose-dependent effect”.

These data come from ChEMBL document CHEMBL4007425, “Drug Repurposing of Histone Deacetylase Inhibitors That Alleviate Neutrophilic Inflammation in Acute Lung Injury and Idiopathic Pulmonary Fibrosis via Inhibiting Leukotriene A4 Hydrolase and Blocking LTB4 Biosynthesis” (J Med Chem, 2017).
